From US9499821B2, “Preventing or treating viral infection using an inhibitor of the LSD1 protein, a MAO inhibitor or an inhibitor of LSD1 and a MAO inhibitor” (The United States of America, as represented by the …, priority 2008, dated 2016)
“Also recorded” adds a separate entry of the source. Read-outs that look alike come from different tables or passages of the source.

Key:
HSV ICP8 = assay: ICP8 immunofluorescence of explanted latently infected trigeminal ganglia; type: cell-based, Balb/c mice; conditions: for ganglia with ICP8 (+) neurons: explant 48 hrs in the presence of drug
Description: (§1) Latently infected mice and trigeminal ganglia: Balb/c mice were infected with 5×10^5 PFU HSV-1 (strain 17) per eye after corneal scarification. Latently infected mice were sacrificed 30 days post clearance of the primary infection and trigeminal ganglia were rapidly explanted into culture in the presence or absence of TCP or control (DMSO or acyclovir). Post explant incubation as indicated, the ganglia were homogenized and briefly sonicated. The reactivated viral yield of each ganglia was determined by titering the clarified supernatant on Vero cells.
Immunofluorescence statistical analysis: Trigeminal ganglia (16 DMSO/Control, 15 acyclovir, and 15 TCP) were fixed at 48 hours post explants. Serial sections representing the entire ganglia were stained and scored by confocal microscopy.
Therefore, latently infected ganglia were explanted in the presence of DMSO (control vector), acyclovir (to prevent viral DNA replication and spread), or TCP for 48 hrs. Ganglia were fixed and sections were probed with antibodies to HSV ICP8, the viral-encoded single stranded binding protein.

[1] = system: herpes simplex virus (HSV); assay: HSV infection of cells treated with MAOIs; qRT-PCR of HSV IE genes and IE proteins; type: cell-based, HSV-1 strain 17; conditions: HSV-infected cells, selected concentrations of drug; relative to DMSO treated cells
HSV-1 (strain 17) = assay: HSV reactivation: viral yield from explanted trigeminal ganglia of latently infected mice; type: cell-based, Balb/c mice
Description: as §1
Statistical analyses: Statistical comparisons were made using Wilcoxon signed rank test (paired ganglia) with a statistical significance of <0.05; Kruskal-Wallis test with post hoc Dunn's multiple comparison test (drug titration and reversal) with a statistical significance of <0.025; Mann-Whitney U test with Dunn's post hoc adjustment (non-paired ganglia time course) with a statistical significance of <0.025; or Fischer's Exact Test with a statistical significance of <0.05. Analyses were made using Prism (V5.0a) and are expressed as the mean+/−s.e.m.
Non-paired ganglia time course statistic analysis: Comparisons were made between control (DMSO) and TCP treated ganglia on day 2 and day 4 post explant. Each comparison utilized a one-sided Mann-Whitney U test followed by application of the Dunn's post hoc adjustment to the p-values. Significant differences were found between DMSO and TCP on day 2 (p=0.0043) and on day 4 (p=0.0011). Both of these differences are still significant after applying the Dunn's adjustment as both are less than the alpha level (α=0.025). The Mann-Whitney tests used an exact p-value for small sample sizes. n=6 for each sample set.
Paired ganglia statistical analysis: Each data point was the result of a single ganglia divided and treated in the presence and absence of TCP. Therefore, a Wilcoxon signed rank test was used to assess differences between each treated and untreated sample. The significant difference was p=0.0002. This test used an exact p-value for small sample sizes with an α level of 0.05. n=16 for each sample set.
TCP titration statistical analysis: To determine at what concentration TCP that would produce a significant reduction in viral load, a Kruskal-Wallis (K-W) test with Dunn's post hoc comparison was used. The K-W test was appropriate due to the comparison of five samples of data that are not normally distributed. Significant differences were found between the five groups (p=0.0007, K-W=19.39). […] No significant difference was found between 1.0 and 1.5 or 1.5 and 2.0 mM data sets. n=5 for control, 0.5, 1.0, and 2.0 mM; n=6 for […].
TCP reversal statistical analysis: Viral yields from ganglia treated without TCP for 2 days, treated with TCP for 2 days, or treated with TCP for 2 days followed by incubation in the absence of drug for 3 days were compared using the K-W test followed by Dunn's post hoc comparisons. The K-W test was appropriate due to the comparison of three samples of data that are not nominally distributed. Significant differences were found between the groups ([…], K-W=10.3).

[2] = Cellular protein controls and cellular toxicity in MAOI-treated infected cells; type: cell-based
Description: (§2) For treatment with MAOIs, cells were pretreated with the indicated concentration of drug for 4-5 hrs prior to infection and maintained throughout infection. Pargyline (p-8013) and Tranylcypromine (p-8511) were obtained from Sigma (St. Louis, Mo.).

[3] = system: HSV IE mRNA (ICP27, ICP4); assay: Nested RT-PCR of viral IE mRNAs in explanted latently infected ganglia; type: cell-based, Balb/c mice; conditions: paired ganglia explanted 12 hrs; 100 μM acyclovir or 2 mM TCP
Description: For the detection of viral IE and cellular mRNAs post explant, 8 ganglia from HSV latently infected or mock infected Balb/c mice were explanted in the presence of DMSO, 100 μM acyclovir, or 2 mM TCP for the indicated times. cDNAs were prepared from total RNA and amplified by qPCR (cellular Sp1 and TBP controls) or nested PCR (viral IE). Primer sets for the nested RT-PCR were as follows:
cDNA samples were normalized to one another according to the level of cellular control Sp1 mRNA. To insure linearity and sensitivity of nested PCR reactions, samples were amplified in parallel with dilutions of cDNA prepared from 3T3 cells infected with HSV at 6.4×10^−5 pfu/cell for 4 hrs. PCR products were resolved in agarose gels and quantitated using Kodak Image Station 4000MM Digital Imaging System.

HSV = conditions: 0.1 PFU HSV per cell, 24 hrs, 2 mM TCP vs DMSO
Description: (§3) Cell infections: For HSV, cells were infected with 0.1 plaque forming units (PFU) of HSV per cell for 24 hrs in the presence of 2 mM Tranylcypromine (TCP) or control DMSO. The resulting viral yields were determined by titer of infected cell lysates on Vero cell monolayers. VZV infections were performed as in Example 3.

Adenovirus Type 5 = conditions: HeLa cells, 2 mM, 5 hours prior to infection, 2 or 4 hours infection
Description: Viral infection and treatment with TCP: HeLa cells (2×10^6) were treated with control DMSO (D) or 2 mM Tranylcypromine (T) for 5 hours prior to infection with various amounts of Adenovirus Type 5 (1.2×10^8, 2.3×10^8, and 4.5×10^8 NAS IU) for 2 or 4 hours. Equal amounts of infected cell lysates were resolved by SDS-PAGE and Western blotted with anti-E1A, anti-LSD1, and anti-β tubulin antibodies. HEK293 and uninfected HeLa cell lysates represented E1A positive and negative controls.
HeLa cells (2×10^6) were treated with control DMSO (D) or various concentrations of Tranylcypromine (TCP) for 5 hours prior to infection with 2.3×10^9 NAS IU of adenovirus Type 5 for 2 hours. Equal amounts of infected cell lysates were resolved by SDS-PAGE and Western blotted with anti-E1A, anti-β Tubulin, and anti-TBP antibodies.

[4] = system: viral IE promoters (histone H3, H3K9 and H3K4 methylation); assay: Chromatin immunoprecipitation of viral IE promoters in MAOI-treated infected cells; type: cell-based; conditions: for nucleosomes bearing repressive marks on the viral IE promoters (histone H3 and H3K9 methylation): in the presence of drug
Description: Chromatin immunoprecipitations (ChIP) from extracts of control, HCF-1 depleted, and LSD1 depleted cells were done essentially as described (Narayanan et al., Proc. Natl. Acad. Sci. USA, 2007, 104, 10835-40). Recovered DNA was subjected to semi-quantitative PCR with dilutions of input DNA to insure linearity using PCR Supermix (Invitrogen, Carlsbad, Calif.) with the following conditions: 95° C. for 2 min followed by 20 cycles of 95° C. for 30 sec; 59° C. for 30 sec; 72° C. for 30 sec. The signal intensities of individual bands, resolved in ethidium bromide agarose gels, were calculated as a percentage of the intensity of the input extract after subtraction of the appropriate background antibody controls. Signal intensities of resolved bands were quantitated using a Kodak 4000MM Image Station.
Samples also were analyzed, in triplicate, by qPCR using ABI Sybr Green PCR Master Mix. For qPCR, samples were run on a ABI PRISM 7900HT with the following conditions: 95° C. for 10 min followed by 40 cycles of 95° C. for 15 sec; 57° C. for 15 sec; 72° C. for 30 sec. Results were analyzed using ABI SDS 2.3 software.
as §2

[5] = system: varicella zoster virus (VZV); assay: VZV infection of cells treated with MAOIs; qRT-PCR of IE62 mRNA and IE proteins; type: cell-based; conditions: VZV-infected cells, 4 hrs, increasing amounts of drug; relative to DMSO treated cells
Description: The methods of Example 1 were followed.
as §3

N[C@@H]1C[C@H]1c1ccccc1 (racemic) [TCP, Tranylcypromine]
odds of viral reactivation, DMSO treated vs TCP treated samples (Odds Ratio) (HSV ICP8; 48 hours post explant): 60.6667 times higher | odds of viral reactivation, acyclovir treated vs TCP treated samples (Odds Ratio) (HSV ICP8; 48 hours post explant): 42.0000 times higher | ganglia with ICP8 (+) neurons (HSV ICP8): 1 of 15 | viral mRNA (HSV IE genes) and IE proteins [1]: dose dependent decrease | reduction in viral load vs control (DMSO) (HSV-1 (strain 17); 0.5 mM TCP, 2 days explant, Dunn's post hoc): did not | reduction in viral load vs control (DMSO) (HSV-1 (strain 17); 1.0 mM TCP, 2 days explant, Dunn's post hoc p<0.05): showed significant differences | reduction in viral load vs control (DMSO) (HSV-1 (strain 17); 1.5 mM TCP, 2 days explant, Dunn's post hoc p<0.05): showed significant differences | viral reactivation following drug removal (TCP-R) (HSV-1 (strain 17); 2 mM TCP 2 days, then 3 days in the absence of drug): high level of viral reactivation; also recorded: HSV reactivation | reduction in viral load vs control (DMSO) (HSV-1 (strain 17); 2.0 mM TCP, 2 days explant, Dunn's post hoc p<0.05): showed significant differences | viral reactivation (viral yield), paired ganglia (HSV-1 (strain 17); each half of a ganglia explanted with or without 2 mM TCP, 2 days, p=0.0002, n=16): inhibition of viral reactivation; also recorded: decrease in viral yield | reactivation of HSV-1 (viral yield), non-paired ganglia time course (HSV-1 (strain 17); explant 2 or 4 days, 2 mM TCP vs DMSO, p=0.0043 (day 2), 0.0011 (day 4), n=6): significantly reduced; also recorded: decrease in viral yield | HSV reactivation at various (lower) levels of TCP (HSV-1 (strain 17); titration of TCP, 2 days explant): lower levels also were effective; also recorded: inhibition of HSV reactivation | cellular toxicity ([2]; VZV and HSV infected cells treated with inhibitor): no significant cellular toxicity | ICP27 mRNA level [3]: not significantly above that of background controls | reduction of viral yields (HSV): ~1000 fold | expression of the adenovirus IE protein E1A (Adenovirus Type 5): inhibits the expression | histone H3 and H3K9 trimethylation on viral IE promoters ([4]; in the presence of TCP): substantial increase | level of H3K4 trimethylation on viral IE promoters ([4]; in the presence of TCP): did not significantly change | nucleosomes bearing repressive marks on the viral IE promoters (histone H3 and H3K9 methylation) [4]: accumulated | viral mRNA (IE62) and IE proteins [5]: dose dependent decrease

C#CCN(C)Cc1ccccc1 [Pargyline]
viral mRNA (HSV IE genes) and IE proteins [1]: dose dependent decrease | cellular toxicity [2]: no significant cellular toxicity | nucleosomes bearing repressive marks on the viral IE promoters (histone H3 and H3K9 methylation) [4]: accumulated | viral mRNA (IE62) and IE proteins [5]: dose dependent decrease

Nc1nc2c(ncn2COCCO)c(=O)[nH]1 [acyclovir]
odds of viral reactivation, DMSO treated vs acyclovir treated samples (Odds Ratio) (HSV ICP8; 48 hours post explant): 1.4444 times higher | ganglia with ICP8 (+) neurons (HSV ICP8): 9 of 12 | ICP27 mRNA level [3]: readily detected
